As usually defined, the IC50 is the midpoint of a concentration-inhibition curve.

Structures are written as SMILES. Like-named read-outs stand apart in the source and are kept apart here.

The text below walks through data of patent US20260078120A1, “SUBSTITUTED PYRIDOPYRIMIDINONES” (MIRATI THERAPEUTICS, INC., priority 2022, published 2026).

Assay [1] concerns SKBR3 (PI3Kα wild type) cells. The assay can be described thus: CellTiter-Glo 2.0 luminescent cell viability assay, 72 hours, SKBR3 cells. Type of assay: cell-based. The conditions noted are these: Homo sapiens, SK-BR-3, 72 h, SKBR3 (PI3Kα wild type) cells, CellTiter-Glo, approximately 72 hours; read-out: SKBR3 (WT) Viability IC50. An outline of the steps: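 Viability measured via CTG luminescence following roughly 72 hours of compound exposure at 37° C. Dosing used a 10 um starting concentration diluted 1:4 over 10 points; percent-of-vehicle data fitted with a variable-slope four-parameter model for IC50.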
In general terms: ATP-based viability assays read luminescence as a measure of living cells.

The subject of assay [2] is T47D (PI3Kα H1047R mutant) cells. The assay can be described thus: CellTiter-Glo 2.0 luminescent cell viability assay, 72 hours, T47D cells. The format is cell-based. The settings on record: T47D (PI3Kα H1047R mutant) cells, CellTiter-Glo, approximately 72 hours, read-out: T47D (H1047R mutant) Viability IC50. Put shortly:
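Viability was measured by CellTiter-Glo 2.0 luminescence after approximately 72 h of compound exposure at 37° C. Plating was 1000 cells per well the day before dosing, with ten 1:4 dilutions from a 10 µM top concentration. Values as percent of vehicle were fitted by variable-slope log(inhibitor) regression to give IC50.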

Take `Cc1cc([C@@H](C)Nc2ccccc2C(=O)O)c2nc(N3CCN(c4ccccc4)CC3C)c(C)c(=O)n2c1` (stereo partly drawn) [Example 11-268, 2-(((1R)-1-(3,7-dimethyl-2-(2-methyl-4-phenylpiperazin-1-yl)-4-oxo-4H-pyrido[1,2-a]pyrimidin-9-yl)ethyl)amino)benzoic acid]: the IC50 in assay [1] was > 10 µM; in assay [2] (Homo sapiens, T47D, 72 h) it was 0.362 µM.

Regarding `Cc1cc([C@@H](C)Nc2ccccc2C(=O)O)c2nc(N3CCN(C)CC3)c(C#N)c(=O)n2c1` [Example 11-295, (R)-2-((1-(3-cyano-7-methyl-2-(4-methylpiperazin-1-yl)-4-oxo-4H-pyrido[1,2-a]pyrimidin-9-yl)ethyl)amino)benzoic acid], the IC50 in assay [1] is > 10 µM; in assay [2] (Homo sapiens, T47D, 72 h) it was 0.503 µM.

Consider `Cc1cc([C@@H](C)Nc2ccccc2C(=O)O)c2nc(NCC3COC3)c(C#N)c(=O)n2c1` [Example 11-204, (R)-2-((1-(3-cyano-7-methyl-2-((oxetan-3-ylmethyl)amino)-4-oxo-4H-pyrido[1,2-a]pyrimidin-9-yl)ethyl)amino)benzoic acid], for which the IC50 in assay [1] was > 10 µM; in assay [2] (Homo sapiens, T47D, 72 h) it was 1.6 µM.

With `Cc1cc([C@@H](C)Nc2cccnc2C(=O)O)c2nc(N3CCC(F)(F)CC3)c(C#N)c(=O)n2c1` [Example 10-121, (R)-3-((1-(3-cyano-2-(4,4-difluoropiperidin-1-yl)-7-methyl-4-oxo-4H-pyrido[1,2-a]pyrimidin-9-yl)ethyl)amino)picolinic acid], the IC50 in assay [1] is > 10 µM; in assay [2] (Homo sapiens, T47D, 72 h), 0.103 µM.

For `Cc1cc([C@@H](C)Nc2ccccc2C(=O)O)c2nc(N3CCC4(C3)CC(F)(F)C4(F)F)c(C)c(=O)n2c1` (stereo partly drawn) [Example 11-436, 2-(((1R)-1-(3,7-dimethyl-4-oxo-2-(1,1,2,2-tetrafluoro-6-azaspiro[3.4]octan-6-yl)-4H-pyrido[1,2-a]pyrimidin-9-yl)ethyl)amino)benzoic acid], the IC50 in assay [1] was > 10 µM; in assay [2] (Homo sapiens, T47D, 72 h), 0.641 µM.

For the molecule `Cc1cc(C(C)Nc2ccccc2C(=O)O)c2nc(C3CCNCC3)cc(=O)n2c1` (centres unmarked) [Example 11-380, 2-((1-(7-methyl-4-oxo-2-(piperidin-4-yl)-4H-pyrido[1,2-a]pyrimidin-9-yl)ethyl)amino)benzoic acid], the IC50 in assay [1] is > 10 µM; in assay [2] (Homo sapiens, T47D, 72 h), > 10 µM.

Take `Cc1cc(C(C)Nc2ccccc2C(=O)O)c2nc(-c3ccc(Cl)cc3)cc(=O)n2c1` (centres unmarked) [Example 11-396, 2-((1-(2-(4-chlorophenyl)-7-methyl-4-oxo-4H-pyrido[1,2-a]pyrimidin-9-yl)ethyl)amino)benzoic acid]: the IC50 in assay [1] was > 10 µM; in assay [2] (Homo sapiens, T47D, 72 h) it was 4.38 µM.

In the case of `Cc1cc([C@@H](C)Nc2ccc(Cl)nc2C(=O)O)c2nc(N3CCCCC3)c(C)c(=O)n2c1` [Example 11-358, (R)-6-chloro-3-((1-(3,7-dimethyl-4-oxo-2-(piperidin-1-yl)-4H-pyrido[1,2-a]pyrimidin-9-yl)ethyl)amino)picolinic acid], the IC50 in assay [1] came to 6.21 µM; in assay [2] (Homo sapiens, T47D, 72 h), 1.27 µM.

Turning to `Cc1cc([C@@H](C)Nc2ccccc2C(=O)O)c2nc(N3Cc4ccc(C(F)F)cc4C3)c(C)c(=O)n2c1` [Example 10-128, (R)-2-((1-(2-(5-(difluoromethyl)isoindolin-2-yl)-3,7-dimethyl-4-oxo-4H-pyrido[1,2-a]pyrimidin-9-yl)ethyl)amino)benzoic acid], the IC50 in assay [1] is > 10 µM; in assay [2] (Homo sapiens, T47D, 72 h), 0.0432 µM.

With `Cc1cc(C(C)Nc2ccc(C(F)(F)F)nc2C(=O)O)c2nc(N3Cc4ccccc4C3)c(C)c(=O)n2c1` (centres unmarked) [Example 11-355, 3-((1-(2-(isoindolin-2-yl)-3,7-dimethyl-4-oxo-4H-pyrido[1,2-a]pyrimidin-9-yl)ethyl)amino)-6-(trifluoromethyl) picolinic acid], the IC50 in assay [1] was > 10 µM; in assay [2] (Homo sapiens, T47D, 72 h) it was 0.88 µM.

For the molecule `Cc1cc(C(C)Nc2ccccc2)c2nc(N3Cc4ccccc4C3)c(C#N)c(=O)n2c1` (centres unmarked) [Example 11-302, 2-(isoindolin-2-yl)-7-methyl-4-oxo-9-(1-(phenylamino)ethyl)-4H-pyrido[1,2-a]pyrimidine-3-carbonitrile], the IC50 in assay [1] stood at 8.97 µM; in assay [2] (Homo sapiens, T47D, 72 h), 1.44 µM.

`Cc1cc([C@@H](C)Nc2ccccc2C(=O)O)c2nc(N3CCN(c4ccccc4)CC3)c(C)c(=O)n2c1` [Example 11-273, (R)-2-((1-(3,7-dimethyl-4-oxo-2-(4-phenylpiperazin-1-yl)-4H-pyrido[1,2-a]pyrimidin-9-yl)ethyl)amino)benzoic acid]: the IC50 came to 7.39 µM in assay [1] and 3.1 µM in assay [2] (Homo sapiens, T47D, 72 h).

On to `Cc1cc([C@H](C)Nc2ccc(F)cc2C(=O)O)c2nc(N3Cc4ccccc4C3)c(C)c(=O)n2c1` [Example 11-365, (S)-5-fluoro-2-((1-(2-(isoindolin-2-yl)-3,7-dimethyl-4-oxo-4H-pyrido[1,2-a]pyrimidin-9-yl)ethyl)amino)benzoic acid], for which the IC50 in assay [1] is > 10 µM; in assay [2] (Homo sapiens, T47D, 72 h) it was 3.27 µM.

For `Cc1cc([C@@H](C)Nc2ccccc2C(=O)O)c2nc(N3CC[C@@H](C)C(F)(F)C3)c(C)c(=O)n2c1` [Example 11-59, 2-(((R)-1-(2-((R)-3,3-difluoro-4-methylpiperidin-1-yl)-3,7-dimethyl-4-oxo-4H-pyrido[1,2-a]pyrimidin-9-yl)ethyl)amino)benzoic acid], the IC50 was > 10 µM in assay [1] and 0.273 µM in assay [2] (Homo sapiens, T47D, 72 h).

Regarding `Cc1cc([C@@H](C)Nc2ccccc2C(=O)O)c2nc(-c3cccc(C(C)(C)C#N)c3)c(C)c(=O)n2c1` [Example 11-238, (R)-2-((1-(2-(3-(2-cyanopropan-2-yl)phenyl)-3,7-dimethyl-4-oxo-4H-pyrido[1,2-a]pyrimidin-9-yl)ethyl)amino)benzoic acid], the IC50 in assay [1] is > 10 µM; in assay [2] (Homo sapiens, T47D, 72 h), 0.31 µM.

On to `Cc1cc([C@@H](C)Nc2ccccc2C(=O)O)c2nc(N3CCC(C(F)(F)F)CC3)c(C#N)c(=O)n2c1` [Example 11-70, (R)-2-((1-(3-cyano-7-methyl-4-oxo-2-(4-(trifluoromethyl)piperidin-1-yl)-4H-pyrido[1,2-a]pyrimidin-9-yl)ethyl)amino)benzoic acid], for which the IC50 in assay [1] is > 10 µM; in assay [2] (Homo sapiens, T47D, 72 h), 0.268 µM.

Regarding `Cc1cc([C@@H](C)Nc2ccccc2C(=O)O)c2nc(N3Cc4ccccc4C3CO)c(C#N)c(=O)n2c1` (stereo partly drawn) [Example 11-288, 2-(((1R)-1-(3-cyano-2-(1-(hydroxymethyl)isoindolin-2-yl)-7-methyl-4-oxo-4H-pyrido[1,2-a]pyrimidin-9-yl)ethyl)amino)benzoic acid], the IC50 in assay [1] was > 10 µM; in assay [2] (Homo sapiens, T47D, 72 h), 0.721 µM.

On to `Cc1cc([C@@H](C)Nc2ccccc2C(=O)O)c2nc(N3CCN(c4c(C)cccc4C)CC3)c(C)c(=O)n2c1` [Example 11-37, (R)-2-((1-(2-(4-(2,6-dimethylphenyl)piperazin-1-yl)-3,7-dimethyl-4-oxo-4H-pyrido[1,2-a]pyrimidin-9-yl)ethyl)amino)benzoic acid], for which the IC50 in assay [1] is > 10 µM; in assay [2] (Homo sapiens, T47D, 72 h), 0.816 µM.

Regarding `Cc1cc([C@@H](C)Nc2ccccc2C(=O)O)c2nc(N3C4CNCC3C4)c(C#N)c(=O)n2c1` [Example 11-178, 2-(((1R)-1-(2-(3,6-diazabicyclo[3.1.1]heptan-6-yl)-3-cyano-7-methyl-4-oxo-4H-pyrido[1,2-a]pyrimidin-9-yl)ethyl)amino)benzoic acid], the IC50 in assay [1] is > 10 µM; in assay [2] (Homo sapiens, T47D, 72 h), ≥ 10 µM.

Turning to `Cc1cc([C@@H](C)Nc2ccccc2C(=O)O)c2nc(N3CCC4(CCOC4)CC3)c(C)c(=O)n2c1` [Example 10-130, (R)-2-((1-(3,7-dimethyl-4-oxo-2-(2-oxa-8-azaspiro[4.5]decan-8-yl)-4H-pyrido[1,2-a]pyrimidin-9-yl)ethyl)amino)benzoic acid], the IC50 in assay [1] was > 10 µM; in assay [2], 0.0469 µM.

Consider `Cc1cc(C(C)Nc2cc(F)ccc2C(=O)O)c2nc(N3Cc4ccccc4C3)c(C)c(=O)n2c1` (centres unmarked) [Example 11-364, 4-fluoro-2-((1-(2-(isoindolin-2-yl)-3,7-dimethyl-4-oxo-4H-pyrido[1,2-a]pyrimidin-9-yl)ethyl)amino)benzoic acid], for which the IC50 in assay [1] was > 10 µM; in assay [2] (Homo sapiens, T47D, 72 h), 5.42 µM.

On to `Cc1cc([C@@H](C)Nc2ccccc2C(=O)O)c2nc(N3CC(O)C4CCCCC43)c(C)c(=O)n2c1` (stereo partly drawn) [Example 11-31, 2-(((1R)-1-(2-(3-hydroxyoctahydro-1H-indol-1-yl)-3,7-dimethyl-4-oxo-4H-pyrido[1,2-a]pyrimidin-9-yl)ethyl)amino)benzoic acid], for which the IC50 was > 10 µM in assay [1] and 0.328 µM in assay [2] (Homo sapiens, T47D, 72 h).

As for `Cc1cc([C@@H](C)Nc2ccncc2C(=O)O)c2nc(N3Cc4ccccc4C3)c(C#N)c(=O)n2c1` [Example 11-274, (R)-4-((1-(3-cyano-2-(isoindolin-2-yl)-7-methyl-4-oxo-4H-pyrido[1,2-a]pyrimidin-9-yl)ethyl)amino)nicotinic acid], the IC50 in assay [1] was > 10 µM; in assay [2] (Homo sapiens, T47D, 72 h), > 10 µM.

As to `Cc1cc([C@@H](C)Nc2ccc(C(F)(F)F)nc2C(=O)O)c2nc(N3Cc4ccccc4C3)c(C)c(=O)n2c1` [Example 11-354, (R)-3-((1-(2-(isoindolin-2-yl)-3,7-dimethyl-4-oxo-4H-pyrido[1,2-a]pyrimidin-9-yl)ethyl)amino)-6-(trifluoromethyl)picolinic acid], the IC50 was > 10 µM in assay [1] and 0.703 µM in assay [2] (Homo sapiens, T47D, 72 h).

As for `Cc1cc([C@@H](C)Nc2ccccc2C(=O)O)c2nc(N3CC4CC4C3)c(C#N)c(=O)n2c1` (stereo partly drawn) [Example 11-223, 2-(((1R)-1-(2-(3-azabicyclo[3.1.0]hexan-3-yl)-3-cyano-7-methyl-4-oxo-4H-pyrido[1,2-a]pyrimidin-9-yl)ethyl)amino)benzoic acid], the IC50 is > 10 µM in assay [1] and 0.126 µM in assay [2] (Homo sapiens, T47D, 72 h).
